Experimental data published in patent publication US8334316B2, “Substituted organosulfur compounds and methods of using thereof” (ACEA Biosciences, Inc., priority 2004, dated 2012).
“And” between values parts separate entries of the source, which are not always exact repeats. Equal entries are not always repeated. Marks after values point to notes of the source that are not given here.

Legend:
[1] = test system: A549 human lung cancer cells; assay: Apoptosis: Annexin V-Cy3 / 6-CFDA staining of A549 cells; format: cell-based; conditions: 24 hrs
Description: The cells were incubated with the drugs for 24 hours and then washed 2× with PBS and 3× with binding buffer (10 mM HEPES, pH 7.5, 140 mM NaCl, 2.5 mM CaCl2). […] The cells were gently washed 3× in 1× binding buffer, mounted, viewed under immunofluorescent microscope and imaged using an attached CCD camera. Note that live cells show staining only with 6-CFDA (green), while necrotic cells will stain only with Annexin V-Cy3 (red). Cells starting the apoptotic process will stain both with AnnexinV-Cy3 and 6-CFDA.

[2] = test system: Bcap-37 human breast cancer; assay: Bcap-37 human breast cancer xenograft in nude mice, dosing from day 7 when tumors palpable (Example 5); format: in vivo; conditions: for Tumor Inhibition Rate C − T/C %: based on tumor weight; for Tumor Volume (g) X ± SD: end of study
Description: Only female mice were used in this study. […] The high, middle and low doses of ACEA100108 were 50, […] and 8 mg/kg/d, respectively.
Preparation and Administration of Test Compounds. […] Seven days after the tumor transplantation, the transplanted tumors grew to size sufficiently large that could be felt by hands when one touched the animal. […] The high, middle and low dose of ACEA100108 was 50, 20 and 8 mg/kg, respectively.
About seven days after the transplantation, tumors in the mice grew sufficiently large so that tumor could be felt by hands when one touched the animals.
For the human breast cancer xenograft model, all used materials, including animal food, animal cage, supporting materials and apparatus contacted by animals, were high-pressure sterilized. Nude mice were maintained in laminar flow shelves under SPF condition. After tumor transplantation, mouse weight and tumor size in each compound dosage group were dynamically monitored and recorded. The tumors size was determined by measuring the major axis (a) and minor axis (b) of the tumor, and tumor volume was calculated according to the equation (3) in Example 3.

[3] = test system: mouse Lewis lung cancer; assay: In vivo antitumor efficacy, mouse Lewis lung cancer model, Example 2 (DBTS, CTX, Taxol reference)

## Fc1ccc(CSSSCc2ccc(F)cc2)cc1 [ACEA100108, Di(p-fluorobenzyl)trisulfide]
[1]; 1 uM
  Annexin V staining (apoptosis): strong staining of Annexin V
[2]; 8 mg/kg iv x7 qd, 0 d (beginning)
  Body weight of mice: 18.5 g and 18.5 ± 1 g
[2]; 8 mg/kg iv x7 qd, 7 d
  Body weight of mice: 19.8 ± 1.5 g
  Mice with palpable tumor / total mice: 6/6††
[2]; 8 mg/kg iv x7 qd, 7 d after transplantation (start of dosing)
  Tumor volume (cm^3): 0.01 cm^3
[2]; 8 mg/kg iv x7 qd, 14 d
  Body weight of mice: 21.7 ± 1.4 g
  Tumor volume (cm^3): 0.107 ± 0.02 cm^3
[2]; 8 mg/kg iv x7 qd, 21 d
  Body weight of mice: 23.2 ± 1.5 g
  Tumor volume (cm^3): 0.27 ± 0.03 cm^3
[2]; 8 mg/kg iv x7 qd, 24 d
  Tumor volume (cm^3): 0.962 ± 0.23 cm^3
[2]; 8 mg/kg iv x7 qd, 24 d (end)
  Body weight of mice: 24.0 g and 24 ± 1.4 g
[2]; 8 mg/kg/d iv x7 qd
  Tumor Volume Inhibition T/C %: 53.38%
  Tumor weight: 1.12 ± 0.18 g
  Tumor Inhibition Rate C − T/C %: 28.21%
  Tumor Volume (g) X ± SD: 0.962 ± 0.23*** cm^3
[2]; 20 mg/kg iv x7 qd, 0 d (beginning)
  Body weight of mice: 18.8 ± 1.2 g
[2]; 20 mg/kg iv x7 qd, 7 d
  Body weight of mice: 19.5 ± 1 g
  Mice with palpable tumor / total mice: 6/6††
[2]; 20 mg/kg iv x7 qd, 7 d after transplantation (start of dosing)
  Tumor volume (cm^3): 0.01 cm^3
[2]; 20 mg/kg iv x7 qd, 14 d
  Body weight of mice: 21.2 ± 1.5 g
  Tumor volume (cm^3): 0.087 ± 0.01 cm^3
[2]; 20 mg/kg iv x7 qd, 21 d
  Body weight of mice: 22.3 ± 1.6 g
  Tumor volume (cm^3): 0.23 ± 0.04 cm^3
[2]; 20 mg/kg iv x7 qd, 24 d
  Tumor volume (cm^3): 0.74 ± 0.18 cm^3
[2]; 20 mg/kg iv x7 qd, 24 d (end)
  Body weight of mice: 24.3 g and 24.3 ± 0.8 g
[2]; 20 mg/kg/d iv x7 qd
  Tumor Volume Inhibition T/C %: 41.06%
  Tumor weight: 0.822 ± 0.12 g
  Tumor Inhibition Rate C − T/C %: 47.31%
  Tumor Volume (g) X ± SD: 0.740 ± 0.18*** cm^3
[2]; 50 mg/kg iv x7 qd, 0 d (beginning)
  Body weight of mice: 18.2 g and 18.2 ± 1.2 g
[2]; 50 mg/kg iv x7 qd, 7 d
  Body weight of mice: 19.3 ± 1 g
  Mice with palpable tumor / total mice: 6/6††
[2]; 50 mg/kg iv x7 qd, 7 d after transplantation (start of dosing)
  Tumor volume (cm^3): 0.01 cm^3
[2]; 50 mg/kg iv x7 qd, 14 d
  Body weight of mice: 20.7 ± 1.2 g
  Tumor volume (cm^3): 0.049 ± 0.02 cm^3
[2]; 50 mg/kg iv x7 qd, 21 d
  Body weight of mice: 21.8 ± 1.5 g
  Tumor volume (cm^3): 0.169 ± 0.03 cm^3
[2]; 50 mg/kg iv x7 qd, 24 d
  Tumor volume (cm^3): 0.485 ± 0.06 cm^3
[2]; 50 mg/kg iv x7 qd, 24 d (end)
  Body weight of mice: 22.8 g and 22.8 ± 1.5 g
[2]; 50 mg/kg iv x10 qd, 0 d (beginning)
  Body weight of mice: 18.8 g and 18.8 ± 1 g
[2]; 50 mg/kg iv x10 qd, 7 d
  Body weight of mice: 19.7 ± 1 g
  Mice with palpable tumor / total mice: 6/6††
[2]; 50 mg/kg iv x10 qd, 7 d after transplantation (start of dosing)
  Tumor volume (cm^3): 0.01 cm^3
[2]; 50 mg/kg iv x10 qd, 14 d
  Body weight of mice: 20.3 ± 1.4 g
  Tumor volume (cm^3): 0.048 ± 0.03 cm^3
[2]; 50 mg/kg iv x10 qd, 21 d
  Body weight of mice: 21.5 ± 1.8 g
  Tumor volume (cm^3): 0.114 ± 0.02 cm^3
[2]; 50 mg/kg iv x10 qd, 24 d
  Tumor volume (cm^3): 0.28 ± 0.04 cm^3
[2]; 50 mg/kg iv x10 qd, 24 d (end)
  Body weight of mice: 21.2 g and 21.2 ± 1.2 g
[2]; 50 mg/kg/d iv x7 qd
  Tumor Volume Inhibition T/C %: 26.91%
  Tumor weight: 0.745 ± 0.10 g
  Tumor Volume (g) X ± SD: 0.485 ± 0.06*** cm^3
[2]; 50 mg/kg/d iv x10 qd
  Tumor Volume Inhibition T/C %: 15.53%
  Tumor weight: 0.672 ± 0.10 g
  Tumor Inhibition Rate C − T/C %: 56.92%
  Tumor Volume (g) X ± SD: 0.280 ± 0.04*** cm^3

## c1ccc(CSSSCc2ccccc2)cc1 [DBTS, Dibenzyl trisulfide]
[3]; 12.5 mg/kg/d iv x10 qd
  Tumor weight: 1.59 ± 0.16 g
[3]; 12.5 mg/kg/d iv x10 qd, vs 5% solvent control
  tumor inhibition rate %: 35.10%
[3]; 12.5 mg/kg/d iv x10 qd, vs normal saline control
  tumor inhibition rate %: 43.10% and 43.01%
[3]; 25 mg/kg/d iv x10 qd
  Tumor weight: 1.35 ± 0.10 g
[3]; 25 mg/kg/d iv x10 qd, vs 5% solvent control
  tumor inhibition rate %: 46.94%
[3]; 25 mg/kg/d iv x10 qd, vs normal saline control
  tumor inhibition rate %: 51.61%
[3]; 50 mg/kg/d iv x10 qd
  Tumor weight: 0.955 ± 0.20 g
[3]; 50 mg/kg/d iv x10 qd, vs 5% solvent control
  tumor inhibition rate %: 61.02%
[3]; 50 mg/kg/d iv x10 qd, vs normal saline control
  tumor inhibition rate %: 65.77% and 65%

## CC(=O)O[C@H]1C(=O)[C@@]2(C)[C@H]([C@H](OC(=O)c3ccccc3)[C@]3(O)C[C@H](OC(=O)[C@H](O)[C@@H](NC(=O)c4ccccc4)c4ccccc4)C(C)=C1C3(C)C)[C@]1(OC(C)=O)CO[C@@H]1C[C@@H]2O [Taxol, paclitaxel, reference compound]
[1]; 50 nM
  Annexin V staining (apoptosis): strong staining of Annexin V
[2]; 10 mg/kg iv x7 qd, 0 d (beginning)
  Body weight of mice: 18.8 g and 18.8 ± 1 g
[2]; 10 mg/kg iv x7 qd, 7 d
  Body weight of mice: 20.5 ± 1 g
  Mice with palpable tumor / total mice: 6/6††
[2]; 10 mg/kg iv x7 qd, 7 d after transplantation (start of dosing)
  Tumor volume (cm^3): 0.01 cm^3
[2]; 10 mg/kg iv x7 qd, 14 d
  Tumor volume (cm^3): 0.103 ± 0.02 cm^3
[2]; 10 mg/kg iv x7 qd, 21 d
  Tumor volume (cm^3): 0.283 ± 0.05 cm^3
[2]; 10 mg/kg iv x7 qd, 24 d
  Tumor volume (cm^3): 0.799 ± 0.23 cm^3
[2]; 10 mg/kg/d iv x7 qd
  Tumor Volume Inhibition T/C %: 44.33%
  Tumor weight: 0.92 ± 0.07 g
  Tumor Inhibition Rate C − T/C %: 41.03%
[3]; 7.5 mg/kg/d iv x5 qd
  Tumor weight: 1.98 ± 0.14 g
[3]; 7.5 mg/kg/d iv x5 qd, vs normal saline control
  tumor inhibition rate %: 30.28%
[3]; 10 mg/kg/d iv x5 qd
  Tumor weight: 1.79 ± 0.09 g
[3]; 10 mg/kg/d iv x5 qd, vs normal saline control
  tumor inhibition rate %: 36.97%
[3]; 15 mg/kg/d iv x5 qd
  Tumor weight: 1.45 ± 0.14 g
[3]; 15 mg/kg/d iv x5 qd, vs normal saline control
  tumor inhibition rate %: 48.94%
